Key:
ALOMY = test: Post-emergence herbicidal action against ALOMY; format: in vivo, Alopecurus myosuroides; settings: application rate 80 g/ha, rated visually after about 3 weeks
How it was run: (§1)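 Aqueous suspensions or emulsions of WP/EC formulations containing 0.5% additive are sprayed at 600 l/ha onto plants at the one-leaf stage. After about 3 weeks in the greenhouse, activity is rated by eye versus untreated controls.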

AVEFA = test: Post-emergence herbicidal action against AVEFA; format: in vivo, Avena fatua; settings: application rate 80 g/ha, rated visually after about 3 weeks
How it was run: as §1

ECHCG = test: Post-emergence herbicidal action against ECHCG; format: in vivo, Echinochloa crus-galli; settings: application rate 80 g/ha, rated visually after about 3 weeks
How it was run: as §1

LOLRI = test: Post-emergence herbicidal action against LOLRI; format: in vivo, Lolium rigidum; settings: application rate 80 g/ha, rated visually after about 3 weeks
How it was run: as §1

SETVI = test: Post-emergence herbicidal action against SETVI; format: in vivo, Setaria viridis; settings: application rate 80 g/ha, rated visually after about 3 weeks
How it was run: as §1

ABUTH = test: Post-emergence herbicidal action against ABUTH; format: in vivo, Abutilon theophrasti; settings: application rate 80 g/ha, rated visually about 3 weeks after treatment
How it was run: as §1

AMARE = test: Post-emergence herbicidal action against AMARE; format: in vivo, Amaranthus retroflexus; settings: application rate 80 g/ha, rated visually about 3 weeks after treatment
How it was run: as §1

MATIN = test: Post-emergence herbicidal action against MATIN; format: in vivo, Matricaria inodora; settings: application rate 80 g/ha, rated visually about 3 weeks after treatment
How it was run: as §1

PHBPU = test: Post-emergence herbicidal action against PHBPU; format: in vivo, Pharbitis purpurea; settings: application rate 80 g/ha, rated visually about 3 weeks after treatment
How it was run: as §1

POLCO = test: Post-emergence herbicidal action against POLCO; format: in vivo, Polygonum convolvulus; settings: application rate 80 g/ha, rated visually about 3 weeks after treatment
How it was run: as §1

STEME = test: Post-emergence herbicidal action against STEME; format: in vivo, Stellaria media; settings: application rate 80 g/ha, rated visually about 3 weeks after treatment
How it was run: as §1

VIOTR = test: Post-emergence herbicidal action against VIOTR; format: in vivo, Viola tricolor; settings: application rate 80 g/ha, rated visually about 3 weeks after treatment
How it was run: as §1

VERPE = test: Post-emergence herbicidal action against VERPE; format: in vivo, Veronica persica; settings: application rate 80 g/ha
How it was run: as §1

HORMU = test: Post-emergence herbicidal action against HORMU; format: in vivo, Hordeum murinum; settings: application rate 80 g/ha
How it was run: as §1

## CCOC(=O)C1C=CC(NC(=O)C2(C(F)(F)F)CC(c3cc(F)cc(F)c3)=NO2)C1 (mixture of isomers) [Example I-058]
ALOMY
  Herbicidal action against [%] ALOMY: 100%
AVEFA
  Herbicidal action against [%] AVEFA: 100%
ECHCG
  Herbicidal action against [%] ECHCG: 100%
LOLRI
  Herbicidal action against [%] LOLRI: 90%
SETVI
  Herbicidal action against [%] SETVI: 90%
ABUTH
  Herbicidal action against [%] ABUTH: 90%
AMARE
  Herbicidal action against [%] AMARE: 90%
MATIN
  Herbicidal action against [%] MATIN: 90%
PHBPU
  Herbicidal action against [%] PHBPU: 80%
POLCO
  Herbicidal action against [%] POLCO: 90%
STEME
  Herbicidal action against [%] STEME: 90%
VIOTR
  Herbicidal action against [%] VIOTR: 90%
VERPE
  Herbicidal action against [%] VERPE: 80%
HORMU
  Herbicidal action against [%] HORMU: 100%

## COC(=O)C1C=CC(NC(=O)C2(C(F)(F)F)CC(c3cc(F)cc(F)c3)=NO2)C1 (mixture of isomers) [Example I-063]
ALOMY
  Herbicidal action against [%] ALOMY: 90%
AVEFA
  Herbicidal action against [%] AVEFA: 100%
ECHCG
  Herbicidal action against [%] ECHCG: 90%
LOLRI
  Herbicidal action against [%] LOLRI: 100%
SETVI
  Herbicidal action against [%] SETVI: 90%
ABUTH
  Herbicidal action against [%] ABUTH: 90%
AMARE
  Herbicidal action against [%] AMARE: 90%
MATIN
  Herbicidal action against [%] MATIN: 90%
PHBPU
  Herbicidal action against [%] PHBPU: 80%
POLCO
  Herbicidal action against [%] POLCO: 90%
STEME
  Herbicidal action against [%] STEME: 90%
VIOTR
  Herbicidal action against [%] VIOTR: 80%
VERPE
  Herbicidal action against [%] VERPE: 80%
HORMU
  Herbicidal action against [%] HORMU: 90%

## C=CC1(C(=O)NC2C=CC(C(=O)OCCCl)C2)CC(c2cc(F)cc(F)c2)=NO1 (mixture of isomers) [Example I-061]
ALOMY
  Herbicidal action against [%] ALOMY: 90%
AVEFA
  Herbicidal action against [%] AVEFA: 100%
ECHCG
  Herbicidal action against [%] ECHCG: 100%
LOLRI
  Herbicidal action against [%] LOLRI: 90%
SETVI
  Herbicidal action against [%] SETVI: 90%
ABUTH
  Herbicidal action against [%] ABUTH: 80%
AMARE
  Herbicidal action against [%] AMARE: 90%
MATIN
  Herbicidal action against [%] MATIN: 80%
PHBPU
  Herbicidal action against [%] PHBPU: 80%
POLCO
  Herbicidal action against [%] POLCO: 90%
STEME
  Herbicidal action against [%] STEME: 90%
VIOTR
  Herbicidal action against [%] VIOTR: 80%
VERPE
  Herbicidal action against [%] VERPE: 90%
HORMU
  Herbicidal action against [%] HORMU: 90%

## COC(=O)[C@@H]1C=C[C@H](NC(=O)C2(C(F)(F)F)CC(c3cc(F)cc(C#N)c3)=NO2)C1 (single isomer, unassigned) [Example I-098]
ALOMY
  Herbicidal action against [%] ALOMY: 100%
AVEFA
  Herbicidal action against [%] AVEFA: 100%
ECHCG
  Herbicidal action against [%] ECHCG: 90%
LOLRI
  Herbicidal action against [%] LOLRI: 90%
SETVI
  Herbicidal action against [%] SETVI: 80%
ABUTH
  Herbicidal action against [%] ABUTH: 80%
AMARE
  Herbicidal action against [%] AMARE: 80%
MATIN
  Herbicidal action against [%] MATIN: 80%
PHBPU
  Herbicidal action against [%] PHBPU: 80%
POLCO
  Herbicidal action against [%] POLCO: 80%
STEME
  Herbicidal action against [%] STEME: 90%
VIOTR
  Herbicidal action against [%] VIOTR: 80%
VERPE
  Herbicidal action against [%] VERPE: 80%
HORMU
  Herbicidal action against [%] HORMU: 90%

## C=CC1(C(=O)NC2C=CC(C(=O)O)C2)CC(c2cc(F)cc(F)c2)=NO1 (mixture of isomers) [Example I-037]
ALOMY
  Herbicidal action against [%] ALOMY: 90%
AVEFA
  Herbicidal action against [%] AVEFA: 90%
ECHCG
  Herbicidal action against [%] ECHCG: 90%
LOLRI
  Herbicidal action against [%] LOLRI: 90%
SETVI
  Herbicidal action against [%] SETVI: 90%
ABUTH
  Herbicidal action against [%] ABUTH: 90%
AMARE
  Herbicidal action against [%] AMARE: 90%
MATIN
  Herbicidal action against [%] MATIN: 80%
PHBPU
  Herbicidal action against [%] PHBPU: 80%
POLCO
  Herbicidal action against [%] POLCO: 90%
STEME
  Herbicidal action against [%] STEME: 90%
VIOTR
  Herbicidal action against [%] VIOTR: 90%
VERPE
  Herbicidal action against [%] VERPE: 90%
HORMU
  Herbicidal action against [%] HORMU: 90%

## O=C(OCCCl)C1C=CC(NC(=O)C2(C(F)(F)F)CC(c3cc(F)cc(F)c3)=NO2)C1 (mixture of isomers) [Example I-067]
ALOMY
  Herbicidal action against [%] ALOMY: 90%
AVEFA
  Herbicidal action against [%] AVEFA: 100%
ECHCG
  Herbicidal action against [%] ECHCG: 90%
LOLRI
  Herbicidal action against [%] LOLRI: 90%
SETVI
  Herbicidal action against [%] SETVI: 90%
ABUTH
  Herbicidal action against [%] ABUTH: 80%
AMARE
  Herbicidal action against [%] AMARE: 80%
MATIN
  Herbicidal action against [%] MATIN: 80%
PHBPU
  Herbicidal action against [%] PHBPU: 80%
POLCO
  Herbicidal action against [%] POLCO: 90%
STEME
  Herbicidal action against [%] STEME: 90%
VIOTR
  Herbicidal action against [%] VIOTR: 80%
VERPE
  Herbicidal action against [%] VERPE: 80%
HORMU
  Herbicidal action against [%] HORMU: 90%

## CCOC(=O)C1C=CC(NC(=O)C2(C(F)(F)F)CC(c3cc(Cl)cc(Cl)c3)=NO2)C1 (mixture of isomers) [Example I-038]
ALOMY
  Herbicidal action against [%] ALOMY: 90%
AVEFA
  Herbicidal action against [%] AVEFA: 100%
ECHCG
  Herbicidal action against [%] ECHCG: 80%
LOLRI
  Herbicidal action against [%] LOLRI: 90%
SETVI
  Herbicidal action against [%] SETVI: 90%
ABUTH
  Herbicidal action against [%] ABUTH: 80%
AMARE
  Herbicidal action against [%] AMARE: 80%
MATIN
  Herbicidal action against [%] MATIN: 90%
PHBPU
  Herbicidal action against [%] PHBPU: 80%
POLCO
  Herbicidal action against [%] POLCO: 80%
STEME
  Herbicidal action against [%] STEME: 90%
VIOTR
  Herbicidal action against [%] VIOTR: 80%
VERPE
  Herbicidal action against [%] VERPE: 90%
HORMU
  Herbicidal action against [%] HORMU: 80%

## CCOCCOC(=O)[C@@H]1C=C[C@H](NC(=O)[C@@]2(C)CC(c3cc(F)cc(F)c3)=NO2)C1 [Example I-093]
ALOMY
  Herbicidal action against [%] ALOMY: 100%
AVEFA
  Herbicidal action against [%] AVEFA: 100%
ECHCG
  Herbicidal action against [%] ECHCG: 100%
LOLRI
  Herbicidal action against [%] LOLRI: 100%
SETVI
  Herbicidal action against [%] SETVI: 80%
ABUTH
  Herbicidal action against [%] ABUTH: 80%
AMARE
  Herbicidal action against [%] AMARE: 80%
MATIN
  Herbicidal action against [%] MATIN: 90%
PHBPU
  Herbicidal action against [%] PHBPU: 80%
POLCO
  Herbicidal action against [%] POLCO: 90%
STEME
  Herbicidal action against [%] STEME: 80%
VIOTR
  Herbicidal action against [%] VIOTR: 80%
VERPE
  Herbicidal action against [%] VERPE: 80%
HORMU
  Herbicidal action against [%] HORMU: 100%

## CC(C)OC(=O)C1C=CC(NC(=O)C2(C(F)(F)F)CC(c3cc(F)cc(F)c3)=NO2)C1 (mixture of isomers) [Example I-064]
ALOMY
  Herbicidal action against [%] ALOMY: 90%
AVEFA
  Herbicidal action against [%] AVEFA: 100%
ECHCG
  Herbicidal action against [%] ECHCG: 90%
LOLRI
  Herbicidal action against [%] LOLRI: 100%
SETVI
  Herbicidal action against [%] SETVI: 90%
ABUTH
  Herbicidal action against [%] ABUTH: 80%
AMARE
  Herbicidal action against [%] AMARE: 90%
MATIN
  Herbicidal action against [%] MATIN: 90%
PHBPU
  Herbicidal action against [%] PHBPU: 80%
POLCO
  Herbicidal action against [%] POLCO: 90%
STEME
  Herbicidal action against [%] STEME: 80%
VIOTR
  Herbicidal action against [%] VIOTR: 80%
VERPE
  Herbicidal action against [%] VERPE: 80%
HORMU
  Herbicidal action against [%] HORMU: 90%

## O=C(OCC(F)(F)F)C1C=CC(NC(=O)C2(C(F)(F)F)CC(c3cc(F)cc(F)c3)=NO2)C1 (mixture of isomers) [Example I-068]
ALOMY
  Herbicidal action against [%] ALOMY: 90%
AVEFA
  Herbicidal action against [%] AVEFA: 100%
ECHCG
  Herbicidal action against [%] ECHCG: 90%
LOLRI
  Herbicidal action against [%] LOLRI: 90%
SETVI
  Herbicidal action against [%] SETVI: 90%
ABUTH
  Herbicidal action against [%] ABUTH: 90%
AMARE
  Herbicidal action against [%] AMARE: 80%
MATIN
  Herbicidal action against [%] MATIN: 90%
PHBPU
  Herbicidal action against [%] PHBPU: 80%
POLCO
  Herbicidal action against [%] POLCO: 90%
STEME
  Herbicidal action against [%] STEME: 90%
VIOTR
  Herbicidal action against [%] VIOTR: 90%
VERPE
  Herbicidal action against [%] VERPE: 80%
HORMU
  Herbicidal action against [%] HORMU: 90%
